{"source": "patent US20250082651A1", "about": "“GANAXOLONE FOR USE IN TREATING GENETIC EPILEPTIC DISORDERS” (Marinus Pharmaceuticals, Inc., priority 2017, published 2025)", "key": {"dogs": {"test_system": "dogs", "experiment": "Cardiovascular safety pharmacology, single dose in dogs", "format": "in vivo, dog", "conditions": "single dose of up to 15 mg/kg"}, "rats": {"test_system": "rats", "experiment": "Oral and IV single- and repeat-dose toxicology studies", "format": "in vivo, rat"}, "[1]": {"experiment": "Solubility of ganaxolone in solvents", "format": "physicochemical", "method": "Ganaxolone is insoluble in water. Its solubilities in 95% alcohol, propylene glycol and polyethylene glycol are 13 mg/mL, 3.5 mg/mL and 3.1 mg/mL, respectively.\nThe pregnenolone neurosteroid (e.g., ganaxolone) formulations suitable for use in the present invention may also be administered parenterally. In such embodiments, the formulations are suitable for intramuscular, subcutaneous, or intravenous injection may comprise physiologically acceptable sterile aqueous or non-aqueous solutions, dispersions, suspensions or emulsions, and sterile powders for reconstitution into sterile injectable solutions or dispersions. Examples of suitable aqueous and non-aqueous carriers, diluents, solvents, or vehicles including water, ethanol, polyols (propylene glycol, polyethylene-glycol, glycerol, cremophor and the like), suitable mixtures thereof, vegetable oils (such as olive oil) and injectable organic esters such as ethyl oleate. Additionally, Ganaxolone can be dissolved at concentrations of >1 mg/ml using water soluble beta cyclodextrins (e.g. beta-sulfobutyl-cyclodextrin and 2-hydroxypropylbetacyclodextrin). A particularly suitable cyclodextrin is a substituted-β-cyclodextrin is CAPTISOL® (cyckodextrin). […]"}}, "data": [{"smiles": "CC(=O)[C@H]1CC[C@H]2[C@@H]3CC[C@H]4C[C@](C)(O)CC[C@]4(C)[C@H]3CC[C@]12C", "note": "[Ganaxolone, 3α-hydroxy-3β-methyl-5α-pregnan-20-one]", "values": [{"measurement": "Effect on cardiovascular parameters", "setting": "dogs", "result": "no effect"}, {"measurement": "Most common effect in toxicology studies", "setting": "rats; oral and IV programmes", "result": "dose-related sedation"}, {"measurement": "Findings correlated to hepatic enzyme induction", "setting": "rats; rats, 6-month study, more pronounced in females", "result": "increased liver weights and dose related hepatocellular hypertrophy"}, {"measurement": "Dissolved concentration", "setting": "[1]; using water soluble beta cyclodextrins", "result": "> 1", "unit": "mg/mL"}, {"measurement": "Solubility in water", "setting": "[1]; water", "result": "insoluble"}]}]}
